Each compound was assayed against T1, Leukotriene D4 (LTD4) receptor (Cavia porcellus, UniProt Q2NNR5) (assay: Leukotriene D4 receptor binding test ([3H]ICI-198615 displacement, lung cell membrane fractions)). Conditions: guinea pig lung membranes; [3H]ICI-198615 about 0.2 nM; pKi=-log Ki; read-out: pKi value (converted).
T1 construct: lung cell membrane fractions of guinea pigs were used; from tissue; host or cells: lung membrane fractions of Hartley strain male guinea pigs
T1 sequence (Q2NNR5 1-340): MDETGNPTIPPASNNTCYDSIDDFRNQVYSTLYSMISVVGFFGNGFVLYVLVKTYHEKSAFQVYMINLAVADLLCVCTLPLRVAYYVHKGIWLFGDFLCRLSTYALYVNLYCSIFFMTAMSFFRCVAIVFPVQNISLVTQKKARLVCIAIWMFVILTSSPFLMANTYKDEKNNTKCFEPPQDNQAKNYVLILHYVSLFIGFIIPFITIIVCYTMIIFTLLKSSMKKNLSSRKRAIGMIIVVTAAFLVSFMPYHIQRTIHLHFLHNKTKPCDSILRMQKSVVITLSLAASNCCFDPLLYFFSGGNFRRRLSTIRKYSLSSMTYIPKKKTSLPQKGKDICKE
Method: Leukotriene D4 receptor binding test
<Preparation of receptor samples>
As receptor samples, lung cell membrane fractions of guinea pigs were used. The membrane fractions were prepared according to the method of Ahn et al. (Ahn, H. S. & Barnett, A. (1986) Eur. J. Pharmacol., 127, 153.). After Hartley strain male guinea pigs (body weight: 400 to 500 g, supplied by Nihon SLC Co.) were killed by exsanguination, lungs were extracted and perfused with a physiological saline solution (Otsuka Seiyaku) from lung arteries. The extracted lungs were cut into pieces immediately or after the lungs were stored by freezing them at -80 ° C. A 10-fold amount of a buffer solution (pH 7.4) of 10 mM PIPES, 10 mM MgCl2, 10 mM CaCl2 and 50 mM NaCl was added thereto and the mixtures were made suspensions by a homogenizer (manufactured by Yamato Co., LP-41C Model). After the suspensions were filtered with gauze, the filtrates were centrifuged by an ultracentrifuge (manufactured by Hitachi Co., 70P-72 Model) with 50,000 g for 10 minutes, whereby membrane fractions were deposited. The membrane fractions were washed twice and then suspended in the same buffer solution to obtain receptor samples. Measurement of a protein concentration was conducted by the Lowry method (Lowry, O, H. et al. (1951) J. Biol. Chem., 193,265.) by using bovine serum albumin as a standard protein. The samples prepared (protein amount: 10 to 25 mg/ml) were stored by freezing them at -80° C. and used for experiments.
<Leukotriene D4 receptor binding test>
The leukotriene D4 (LTD4) receptor binding test was conducted according to the method of O'Sullivan et al. (O'Sullivan, B. P. & Mong, S. (1989) Mol. Pharmacol., 35, 795.). The receptor samples were diluted with a buffer solution (pH 7.4) of 10 mM PIPES, 10 mM MgCl2, 10 mM CaCl2 and 50 mM NaCl and 0.42 mg/ml in terms of a protein amount was used. As a labeling compound, [^3 H]ICI-198615 (produced by Du Pont Co., 60 Ci/mmol) which specifically binds to the LTD4 receptor was used. [^3 H]ICI-198615 and a compound to be tested were dissolved in dimethylsulfoxide and a 1/50 amount (2% by volume) of the solution was added to the receptor-diluted solutions, respectively. 500 μl of each reaction mixture was incubated at 25° C. for 40 minutes and then filtered with a glass fiber filter (Whatman, GF/B type) by using a cell harvester (manufactured by Brandel Co., M-30R Model). The filters were washed with 10 ml of an ice-cooled 100 mM NaCl-50 mM phosphate buffer solution (pH 7.5) and subjected to ultrasonic treatment in 9 ml of a liquid scintillator (manufactured by Nacalai Tesque, Co., Clear sol I) for 2 minutes. Thereafter, radioactivity was measured by a liquid scintillation counter (manufactured by Packard Co., 2000 CA Model). In a test of determining a dissociation constant of ICI-198615, 0.1 to 2 nM [^3 H]ICI-198615 and 10 μM non-radioactive ICI-198615 were used. In a test of determining inhibition constants of the respective compounds to be tested, [^3 H]ICI-198615 having a concentration of about 0.2 nM and the compounds each having a concentration of 0.1 pM to 0.1 mM were used.
<Data analysis of receptor binding test>
The dissociation constant (Kd) of ICI-198615 and the binding inhibition constants (Ki) of the respective compounds to be tested were determined by the following numerical formulae (A), (B) and (C).
wherein B: a concentration of a label [3H] which is bound to a receptor, Bmax: a maximum receptor-binding concentration of a label [^3 H], F: a concentration of a label [^3 H] which is not bound to a receptor, [L]: a concentration of a label [^3 H], IC50 : a concentration of a compound which inhibits 50% of binding of a label [^3 H] to a receptor and pKi: a logarithm, of a reciprocal of Ki.
Compound `CC(SC1c2ccccc2COc2ccc(OCc3ccc4ccccc4n3)cc21)C(=O)O` (stereo not drawn) [Example 23, 11-(1-Carboxyethylthio)-2-(quinolin-2-yl)methoxy-6,11-dihydrodibenz[b,e]oxepine] has a Ki of 5.01 nM. For `O=C(O)COC1c2ccccc2COc2ccc(OCc3ccc4ccc(Cl)cc4n3)cc21` (stereo not drawn) [Example 27, 11-Carboxymethoxy-2-(7-chloroquinolin-2-yl)methoxy-6,11-dihydrobenz[b,e]oxepine], the Ki was 5.01 nM. `Clc1ccc2ccc(COc3ccc4c(c3)C(OCCc3nn[nH]n3)c3ccccc3CO4)nc2c1` (stereo not drawn) [Example 31, 2-(7-Chloroquinolin-2-yl)methoxy-11-[2-(tetrazol-5-yl)ethoxy]-6,11-dihydrodibenz[b,e]oxepine] gave a Ki of 2 nM. `O=C(CSC1c2ccccc2COc2ccc(OCc3ccc4ccc(Cl)cc4n3)cc21)NS(=O)(=O)c1ccccc1` (stereo not drawn) [Example 39, 11-[(Phenylsulfonyl)aminocarbonyl]methylthio-2-(7-chloroquinolin-2-yl)methoxy-6,11-dihydrodibenz[b,e]oxepine] showed a Ki of 2 nM. Work on `Cc1ccccc1S(=O)(=O)NC(=O)CCSC1c2ccccc2COc2ccc(OCc3ccc4ccc(Cl)cc4n3)cc21` (stereo not drawn) [Example 40, 2-(7-Chloroquinolin-2-yl)methoxy-11-[2-[(2-methylphenylsulfonyl)aminocarbonyl]ethylthio]-6,11-dihydrodibenz[B,e]oxepine] yielded a Ki of 2.51 nM. `O=C(CSC1c2ccccc2COc2ccc(OCc3ccc4ccccc4n3)cc21)NS(=O)(=O)c1ccccc1` (stereo not drawn) [Example 41, 11-[(Phenylsulfonyl)aminocarbonyl]methylthio-2-(quinolin-2-yl)methoxy-6,11-dihydrodibenz[b,e]oxepine] showed a Ki of 1.26 nM.

Same assay, conditions: pKi value, guinea pig lung membranes; [3H]ICI-198615 about 0.2 nM; pKi=-log Ki
For `O=C(O)CCSC1c2ccccc2COc2ccc(OCc3ccc4ccc(Cl)cc4n3)cc21` (single isomer, unassigned; (+)) [Example 52, (+)-11-(2-Carboxyethylthio)-2-(7-chloroquinolin-2-yl)methoxy-6,11-dihydrodibenz[b,e]oxepine], the Ki was 0.316 nM. Work on `O=C(O)CCSC1c2ccccc2COc2ccc(OCc3ccc4cc(F)c(Cl)cc4n3)cc21` (single isomer, unassigned; (-)) [Example 51, (-)-11-(2-Carboxyethylthio)-2-(7-chloro-6-fluoroquinolin-2-yl)methoxy-6,11-dihydrodibenz[b,e]oxepine] yielded a Ki of 1.26 nM. For `O=C(O)CCSC1c2ccccc2COc2ccc(OCc3ccc4ccc(Cl)cc4n3)cc21` (single isomer, unassigned; (-)) [Example 53, (-)-11-(2-Carboxyethylthio)-2-(7-chloroquinolin-2-yl)-methoxy-6,11-dihydrodibenz[b,e]oxepine], the Ki was 3.98 nM. `O=C(O)CCSC1c2ccccc2COc2ccc(OCc3ccc4cc(Cl)ccc4n3)cc21` (stereo not drawn) [Example 5, 11-(2-Carboxyethylthio)-2-(6-chloroquinolin-2-yl)methoxy-6,11-dihydrodibenz[b,e]oxepine] showed a Ki of 3.16 nM. Work on `Cc1cccc2c1C(SCCC(=O)O)c1cc(OCc3ccc4ccc(Cl)cc4n3)ccc1OC2` (stereo not drawn) [Example 12, 11-(2-Carboxyethylthio)-2-(7-chloroquinolin-2-yl)methoxy-10-methyl-6,11-dihydrodibenz[b,e]oxepine] yielded a Ki of 5.01 nM. For `O=C(O)CCSC1c2ccc(Br)cc2COc2ccc(OCc3ccc4ccc(Cl)cc4n3)cc21` (stereo not drawn) [Example 14, 8-Bromo-11-(2-carboxyethylthio)-2-(7-chloroquinolin-2-yl)-methoxy-6,11-dihydrodibenz[b,e]oxepine], the Ki was 3.16 nM. In the case of `N#Cc1cccc2c1COc1ccc(OCc3ccc4ccc(Cl)cc4n3)cc1C2SCCC(=O)O` (stereo not drawn) [Example 15, 11-(2-Carboxyethylthio)-2-(7-Chloroquinolin-2-yl)methoxy-7-cyano-6,11-dihydrodibenz[b,e]oxepine], the Ki is reported as 0.631 nM. `O=C(O)CCSC1c2ccc(SCC(=O)O)cc2COc2ccc(OCc3ccc4ccc(Cl)cc4n3)cc21` (stereo not drawn) [Example 16, 11-(2-Carboxyethylthio)-8-carboxymethylthio-2-(7-chloroquinolin-2-yl)methoxy-6,11-dihydrodibenz[b,e]oxepine] showed a Ki of 0.631 nM. In the case of `O=C(O)CCSC1c2ccc(-c3nn[nH]n3)cc2COc2ccc(OCc3ccc4ccccc4n3)cc21` (stereo not drawn) [Example 17, 11-(2-Carboxyethylthio)-2-(quinolin-2-yl)methoxy-8-(tetrazol-5-yl)-6,11-dihydrodibenz[b,e]oxepine], the Ki is reported as 1.58 nM. `O=C(O)CCSC1c2ccc(-c3nn[nH]n3)cc2COc2ccc(OCc3ccc4ccc(Cl)cc4n3)cc21` (stereo not drawn) [Example 18, 11-(2-Carboxyethylthio)-2-(7-chloroquinolin-2-yl)methoxy-8-(tetrazol-5-yl)-6,11-dihydrodibenz[b,e]oxepine] showed a Ki of 0.2 nM. In the case of `O=C(O)CCSC1c2cc(OCc3ccc4ccc(Cl)cc4n3)ccc2OCc2c(-c3nn[nH]n3)cccc21` (stereo not drawn) [Example 19, 11-(2-Carboxyethylthio)-2-(7-chloroquinolin-2-yl)methoxy-7-(tetrazol-5-yl)-6,11-dihydrodibenz[b,e]oxepine], the Ki is reported as 0.501 nM. `NC(=O)c1cccc2c1COc1ccc(OCc3ccc4ccc(Cl)cc4n3)cc1C2SCCC(=O)O` (stereo not drawn) [Example 20, 7-Carbamoyl-11-(2-carboxyethylthio)-2-(7-chloroquinolin-2-yl)methoxy-6,11-dihydrodibenz[b,e]oxepine] showed a Ki of 0.631 nM. In the case of `O=C(O)CCCSC1c2ccccc2COc2ccc(OCc3ccc4ccc(Cl)cc4n3)cc21` (stereo not drawn) [Example 24, 11-(3-Carboxypropylthio)-2-(7-chloroquinolin-2-yl)methoxy-6,11-dihydrodibenz[b,e]oxepine], the Ki is reported as 2.51 nM. With `Clc1ccc2ccc(COc3ccc4c(c3)C(SCCc3nn[nH]n3)c3ccccc3CO4)nc2c1` (stereo not drawn) [Example 30, 2-(7-Chloroquinolin-2-yl)methoxy-11-[2-(tetrazol-5-yl)ethylthio]-6,11-dihydrodibenz[b,e]oxepine] the Ki was 2 nM. `CC(=O)CCc1ccc2c(c1)COc1ccc(OCc3ccc4cc(F)c(Cl)cc4n3)cc1C2SCCC(=O)O` (stereo not drawn) [Example 48, 11-(2-Carboxyethylthio)-2-(7-chloro-6-fluoroquinolin-2-yl)methoxy-8-(2-acetylethyl)-6,11-dihydrodibenz[b,e]oxepine] gave a Ki of 0.2 nM.
